According to publication PMC8624133, “10th Trends in Medical Mycology Held on 8 to 11 October 2021, Aberdeen, Scotland, Organized by the European Confederation of Medical Mycology (ECMM)” (Journal of Fungi, 2021):
≈ marks a conversion by molar mass, not a printed value.

Assays:
[1] = system: C. auris clinical strains; assay: organism not typed; assay type: cell-based, Candida auris; settings: range, 78 strains from patients with COVID-19
[2] = system: C. auris Isolate B and Isolate C; assay: microbe, parasite or virus in culture; assay type: cell-based, Candida auris; settings: for reduction in MIC: Isolate C with ERG11 WT in place of K143R
A. fumigatus complex = settings: share of isolates, n = 59, EUCAST clinical breakpoints
[3] = system: azole-resistant A. fumigatus SS clinical strains; assay: EUCAST E.DEF 9.3.2; assay type: cell-based; settings: Aspergillus fumigatus
[4] = system: Exophiala phaeomuriformis; assay: MIC, CLSI M27-A3; assay type: cell-based; settings: read-out: MIC values
In short: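 Isolate recovered from aviation kerosene by 0.22 μm membrane filtration, grown on potato dextrose agar at 30 °C for seven days and identified by ITS sequencing. Susceptibility to clinical antifungals tested per CLSI M27-A3.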

[5] = system: nine strains of Candida spp.; assay: CLSI M27-A3 broth microdilution; assay type: cell-based; settings: Candida; nine strains; read-out: GM MIC
A. niger complex = assay: EUCAST E.Def 9.3.2 susceptibility, CPA isolates; assay type: cell-based, Aspergillus niger complex; settings: n = 7, ECOFFs
[6] = system: A. fumigatus clinical isolates; assay: Susceptibility of clinical isolates from CF patients; settings: all 10 clinical isolates
A. fumigatus isolates = assay: AFST by EUCAST method and direct inoculation of spore suspensions
Experimental: Material/methods: We used two methods for AFST: In the standard “EUCAST method”, AFST was performed using spores from a maturated colony. In the “direct inoculation method”, AFST was performed using the spore suspensions that were either stored or sent from other laboratories directly without a subculturing phase. Three groups of isolates were analyzed. […] Spore suspensions were prepared and AFST was performed daily after storing the isolates for 4 days at room temperature, and after 4 days for spore suspensions stored at 2–4 °C and at 28 °C. All measurements were performed in triplicate. Group II, retrospective analysis: 50 isolates that were sent to our laboratory as spore suspensions were tested using the direct inoculation method and stored at −70 °C in glycerol broth. The stored isolates were revived and AFST was repeated using the EUCAST method. Group III: prospective analysis: 30 isolates that were sent to our laboratory as spore suspensions were tested using the direct inoculation method and simultaneously using the EUCAST methods without storage at −70 °C. MICs based on the EUCAST and direct inoculation methods were compared.

McLDM strains = assay: EUCAST MIC, S. cerevisiae overexpressing M. circinelloides LDM, resistance phenotypes; assay type: cell-based, Saccharomyces cerevisiae
F. verticillioides = assay: Etest susceptibility; assay type: cell-based, Fusarium verticillioides
C. auris = assay: CLSI M27-A3 broth microdilution; assay type: cell-based, Candida auris
[7] = system: Parathyridaria percutanea; assay: In vitro antifungal susceptibility; assay type: cell-based
C. albicans = assay type: cell-based, Candida albicans
Candida lipolytica = assay: CLSI M44 agar diffusion; assay type: cell-based
[8] = system: Phaeoacremonium parasiticum; assay: Antifungal susceptibility testing; assay type: cell-based
Experimental: Results: Cultures for bacteria were sterile. Culture on Sabouraud was positive after 5 days of incubation, showing slow growing and initially white colonies. […] Its identification was performed by sequencing the internal transcribed spacer (ITS) region of ribosomal DNA, being the isolate identified as Phaeoacremonium parasiticum (100% homology).

McLDM-F5 = assay: microbe, parasite or virus in culture; assay type: cell-based, Saccharomyces cerevisiae AD2Δgal; settings: Saccharomyces cerevisiae, read-out: mean MIC
C. tropicalis = assay type: cell-based, Candida tropicalis
C. glabrata = assay type: cell-based, Candida glabrata
C. krusei = assay type: cell-based, Candida krusei
[9] = system: biofilm of filamentous fungi; assay: Biofilm XTT-menadione assay; assay type: cell-based
Experimental: Materials & Methods: Eight strains are studied: Fusarium solani, Fusarium dimerum, Lomentospora prolificans, Scedosporium apiospermum, Aspergillus flavus, Aspergillus fumigatus and two azole resistant A. fumigatus.
Biofilms were formed after a 90-min adhesion phase followed by the addition of RPMI medium and after a 48 h at 37 °C. Antifungals at different concentrations were added, either after the adhesion phase or after the 48 h of incubation to study their effect on the formation and on the preformed biofilm. After washing, a mixture of XTT-menadione was added to the wells. After 60 min at 37 °C, the OD (optical density) is measured at 450 and 630 nm. An optical microscope observation allows the visualization of elements of the biofilm.

McLDM-F1-CPR = assay: microbe, parasite or virus in culture; assay type: cell-based, Saccharomyces cerevisiae AD2Δgal; settings: Saccharomyces cerevisiae, read-out: mean MIC
[10] = system: Aspergillus spp. isolates; assay: Gradient strip susceptibility (Liofilchem); assay type: cell-based; settings: first isolate per species and patient
C. parapsilosis = assay type: cell-based, Candida parapsilosis
Other species of Candida = assay type: cell-based, Candida spp.
Trichosporon isolates = assay: CLSI broth microdilution; assay type: cell-based, Trichosporon spp.; settings: read-out: GM MIC
[11] = strain from pleural fluid of an ICU patient, no mutations in cyp51A
[12] = two strains from a cystic fibrosis patient, TR34/L98H

For `CCC(C)n1ncn(-c2ccc(N3CCN(c4ccc(OCC5COC(Cn6cncn6)(c6ccc(Cl)cc6Cl)O5)cc4)CC3)cc2)c1=O` (stereo not shown) [itraconazole], the MIC [1] was 0.12 to 16 µg/mL (≈ 0.17 to 22.7 µM), the “change of MIC” value [2] was “largely unchanged” and the “reduction in MIC” value [2] was “unchanged”. It also gave a Resistance (A. fumigatus complex) of 5%, an MIC [3, 11] greater than 8 µg/mL and an MIC [3, 12] greater than 8 µg/mL. The MIC [4] was 0.25 µg/mL (≈ 0.354 µM), the MIC [5] was 0.11 µg/mL (≈ 0.156 µM) and the Non-wild type isolates (A. niger complex) was 29%. For the same compound, the susceptibility [6] was “susceptible”, the MIC (A. fumigatus isolates; Aspergillus fumigatus, Group II, 5 strains, direct inoculation method) was 2 to 4 µg/mL (≈ 2.83 to 5.67 µM) and the MIC (A. fumigatus isolates; Aspergillus fumigatus, Group II, the same 5 strains, EUCAST method) was 0.5 to 1 µg/mL (≈ 0.709 to 1.42 µM). The “MICs compared to AD2Δ” value (McLDM strains) was “not affected”, the “minimum inhibitory concentration (MIC), in words” value (F. verticillioides) was “high values” and the MIC Range (C. auris) was 0.125 to 1 µg/mL. For the same compound, the MIC (C. auris; Candidozyma auris, read-out: GM MIC) was 0.12 µg/mL (≈ 0.17 µM) and the “in vitro susceptibility category” value [7] was “resistance”.
For `C[C@@H](c1ncncc1F)[C@](O)(Cn1cncn1)c1ccc(F)cc1F` [voriconazole], the “I (intermediate) isolates, n (%)” value (C. albicans) was 0 (0%), the “R (resistant) isolates, n (%)” value (C. albicans) was “S 200 (99%) I 0 (0%) R 2 (1%)” and the “S (sensitive) isolates, n (%)” value (C. albicans) was 200 (99%). The MIC [1] was 0.06 to 8 µg/mL (≈ 0.172 to 22.9 µM), the resistant isolates (Candida lipolytica) was 58% and the “reduction in MIC” value [2] was 2 fold. For the same compound, the “minimal inhibitory concentrations (MIC), in words” value [8] was “low”, the Resistance (A. fumigatus complex) was 9% and the MIC [3, 11] was 1 µg/mL (≈ 2.86 µM). It also gave an MIC [3, 12] of 4 µg/mL (≈ 11.5 µM), an MIC [4] of 0.25 µg/mL (≈ 0.716 µM) and an MIC (McLDM-F5) of 0.58 µg/mL (≈ 1.66 µM). The “I (intermediate) isolates, n (%)” value (C. tropicalis) was 0 (0%), the “R (resistant) isolates, n (%)” value (C. tropicalis) was “S 57 (100%) I 0 (0%) R 0 (0%)” and the “S (sensitive) isolates, n (%)” value (C. tropicalis) was 57 (100%). For the same compound, the “I (intermediate) isolates, n (%)” value (C. glabrata) was 2 (2.8%), the “R (resistant) isolates, n (%)” value (C. glabrata) was “S 62 (87.3%) I 2 (2.8%) R 7 (9.9%)” and the “S (sensitive) isolates, n (%)” value (C. glabrata) was 62 (87.3%). For the same compound, the “S (sensitive) isolates, n (%)” value (C. krusei) was 7 (100%), the Non-wild type isolates (A. niger complex) was 29% and the susceptibility [6] was “susceptible”. It also gave an MIC (A. fumigatus isolates; Aspergillus fumigatus, Group I, one resistant isolate) of 2 to 4 µg/mL (≈ 5.73 to 11.5 µM), an MIC (A. fumigatus isolates; Group III, one isolate, EUCAST methods) of 2 µg/mL (≈ 5.73 µM) and an MIC (A. fumigatus isolates; Group III, the same isolate, direct inoculation) of 1 µg/mL (≈ 2.86 µM). The “number of strains with 100% inhibition of biofilm formation” value [9] was “one”, the “minimum inhibitory concentration (MIC), in words” value (F. verticillioides) was “lower values” and the MIC (McLDM-F1-CPR) was 0.29 µg/mL (≈ 0.83 µM). The “isolates with in vitro high MIC values” [10] was 1.9%, the “I (intermediate) isolates, n (%)” value (C. parapsilosis) was 1 (0.6%) and the “R (resistant) isolates, n (%)” value (C. parapsilosis) was “S 170 (98.8%) I 1 (0.6%) R 1 (0.6%)”. For the same compound, the “S (sensitive) isolates, n (%)” value (C. parapsilosis) was 170 (98.8%), the “I (intermediate) isolates, n (%)” value (Other species of Candida) was 0 (0%) and the “R (resistant) isolates, n (%)” value (Other species of Candida) was “S 26 (100%) I 0 (0%) R 0 (0%)”. For the same compound, the “S (sensitive) isolates, n (%)” value (Other species of Candida) was 26 (100%) and the MIC (Trichosporon isolates) was 0.075 µg/mL (≈ 0.215 µM).
